This note sets out measurements from US12612368B2 (Remedy Plan, Inc., priority 2019, dated 2026).

Read-outs that look alike come from different tables or passages of the source.

In one test the test system is MV-4-11 cells. Nature of the test: Cell viability in MV-4-11 cells (CellTiter Glo2). The format is cell-based. To be noted: Homo sapiens, MV4-11, 96 h, 8-point dose response, 4 days.
The next test addresses T1, NAMPT (Homo sapiens, UniProt P43490).
T1 construct: purchased Abcam ab221819
Nature of the test: NAMPT Activity Assay (Abcam #ab221819). Conditions: purified NAMPT, two-step reaction, OD450 nm; percent inhibition vs no drug; compound concentration not stated. The format is biochemical.

The mark [1] stands for this setting: CellTiter Glo2 (Table E1), read-out: MV-4-11 IC50.
[2] abbreviates: CellTiter Glo2 (Table E2), read-out: MV-4-11 Cell Viability, MV-4-11 IC50.

In general, IC50 refers to the concentration that gives 50% inhibition.

T1 sequence (P43490 whole entry): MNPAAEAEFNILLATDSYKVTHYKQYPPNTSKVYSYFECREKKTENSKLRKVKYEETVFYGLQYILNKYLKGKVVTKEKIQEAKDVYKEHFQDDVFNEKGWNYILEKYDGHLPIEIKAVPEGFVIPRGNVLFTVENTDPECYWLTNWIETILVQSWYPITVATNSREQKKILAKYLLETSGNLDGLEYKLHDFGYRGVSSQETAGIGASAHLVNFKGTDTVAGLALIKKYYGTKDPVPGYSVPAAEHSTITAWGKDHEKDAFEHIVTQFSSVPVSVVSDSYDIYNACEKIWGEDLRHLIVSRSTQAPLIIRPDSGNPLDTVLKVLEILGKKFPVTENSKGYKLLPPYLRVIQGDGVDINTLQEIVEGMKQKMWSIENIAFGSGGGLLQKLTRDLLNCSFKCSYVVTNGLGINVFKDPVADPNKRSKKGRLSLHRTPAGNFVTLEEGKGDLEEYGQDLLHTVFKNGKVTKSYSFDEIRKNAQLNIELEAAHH
Method for MV-4-11 cells: Approximately 10,000 MV-4-11 cells per well of a 96-well plate were treated with DMSO (no drug control) or each compound in Tables E1 and E2 in an 8-point dose response for 4 days, Cell viability was measured using CellTiter Glo2. The ICse of each compound was determined using CDD Vault.

For `CCN(C(C)=O)c1ccc(-c2ccc(C(=O)NCc3cccnc3)cn2)cc1C` [Compound I-430, 6-[4-[acetyl(ethyl)amino]-3-methyl-phenyl]-N-(3-pyridylmethyl)pyridine-3-carboxamide], the IC50 in the test with MV-4-11 cells (setting [1]) worked out at 267 nM. Also, the “NAMPT Inhibition Code” value at NAMPT is “B (B = ≥33 to <66% inhibition)”.

Consider `CCN(C(C)=O)c1ccc(-c2ccc(C(=O)NCc3cccnc3C)cn2)cc1Cl` [Compound I-444, 6-[4-[acetyl(ethyl)amino]-3-chloro-phenyl]-N-[(2-methyl-3-pyridyl)methyl]pyridine-3-carboxamide], for which, in the test with MV-4-11 cells (setting [1]), the IC50 was 1820 nM. In addition, the “NAMPT Inhibition Code” value at NAMPT is on record as “A (A = <33% inhibition)”.

`CCc1cc(-c2ccc(C(=O)NCc3cccnc3C)cn2)ccc1N(C)C(C)=O` [Compound I-445, 6-[4-[acetyl(methyl)amino]-3-ethyl-phenyl]-N-[(2-methyl-3-pyridyl)methyl]pyridine-3-carboxamide]: the IC50 in the test with MV-4-11 cells (setting [1]) was determined as 3690 nM. The “NAMPT Inhibition Code” value at NAMPT was “A (A = <33% inhibition)”.

Consider `CCCN(C(C)=O)c1ccc(-c2ccc(C(=O)NCc3cccnc3C)cn2)cc1C` [Compound I-446, 6-[4-[acetyl(propyl)amino]-3-methyl-phenyl]-N-[(2-methyl-3-pyridyl)methyl]pyridine-3-carboxamide], for which the IC50 in the test with MV-4-11 cells (setting [1]) was determined as 2170 nM. In addition, the “NAMPT Inhibition Code” value on NAMPT is “A (A = <33% inhibition)”.

In the case of `CC(=O)N(CC1COC1)c1ccc(-c2ccc(C(=O)NCc3cccnc3)cn2)cc1` [Compound I-447, 6-[4-[acetyl(oxetan-3-ylmethyl)amino]phenyl]-N-(3-pyridylmethyl)pyridine-3-carboxamide], the IC50 in the test with MV-4-11 cells (setting [2]) worked out at 493 nM. The “NAMPT Inhibition Code” value on NAMPT is listed as “A (A = <33% inhibition)”.

As for `CC(=O)N(CCNC(=O)OC(C)(C)C)c1ccc(-c2ccc(C(=O)NCc3cccnc3)cn2)cc1` [Compound I-448, tert-butyl N-[2-[N-acetyl-4-[5-(3-pyridylmethylcarbamoyl)-2-pyridyl]anilino]ethyl]carbamate], the IC50 in the test on MV-4-11 cells (setting [1]) is 691 nM. Moreover, the “NAMPT Inhibition Code” value on NAMPT is reported as “A (A = <33% inhibition)”.

For the compound `CC(=O)N(CC(F)F)c1ccc(-c2ccc(C(=O)NCc3cccnc3C)cn2)cc1` [Compound I-449, 6-[4-[acetyl(2,2-difluoroethyl)amino]phenyl]-N-[(2-methyl-3-pyridyl)methyl]pyridine-3-carboxamide], the IC50 in the test with MV-4-11 cells (setting [2]) was 5180 nM. Also, the “NAMPT Inhibition Code” value at NAMPT was “A (A = <33% inhibition)”.

For the compound `CCC(=O)N(C)c1ccc(-c2ccc(C(=O)NCc3ccc(C)nc3)cn2)cc1C` [Compound I-450], in the test on MV-4-11 cells (setting [2]), the IC50 stood at 7630 nM. Further, the “NAMPT Inhibition Code” value on NAMPT was “B (B = ≥33 to <66% inhibition)”.

With `CCC(=O)N(C)c1ccc(-c2ccc(C(=O)NCc3ccc(OC)nc3)cn2)cc1C` [Compound I-451], in the test with MV-4-11 cells (setting [2]), the IC50 is 5370 nM. The “NAMPT Inhibition Code” value on NAMPT is given as “B (B = ≥33 to <66% inhibition)”.

For `CC(=O)N(CC1CCC1)c1ccc(-c2ccc(C(=O)NCc3cccnc3)cn2)cc1` [Compound I-453, 6-[4-[acetyl(cyclobutylmethyl)amino]phenyl]-N-(3-pyridylmethyl)pyridine-3-carboxamide], the half-inhibitory concentration (IC50) with MV-4-11 cells (setting [2]) was 38 nM. For the same compound, on NAMPT, the “NAMPT Inhibition Code” value is listed as “C (C = ≥66% inhibition)”.

`CC(=O)N(CC(C)C)c1ccc(-c2ccc(C(=O)NCc3cccnc3C)cn2)cc1C` [Compound I-454, 6-[4-[acetyl(isobutyl)amino]-3-methyl-phenyl]-N-[(2-methyl-3-pyridyl)methyl]pyridine-3-carboxamide]: the IC50 in the test with MV-4-11 cells (setting [2]) came to 2140 nM. Besides, on NAMPT, the “NAMPT Inhibition Code” value is on record as “A (A = <33% inhibition)”.

On to `CC(=O)N(C)c1ccc(-c2ccc(C(=O)NCc3cccnc3C)cn2)cc1C(F)(F)F` [Compound I-455, 6-[4-[acetyl(methyl)amino]-3-(trifluoromethyl)phenyl]-N-[(2-methyl-3-pyridyl)methyl]pyridine-3-carboxamide], for which the 50% inhibitory concentration (IC50) with MV-4-11 cells (setting [2]) worked out at 3470 nM. On NAMPT, the “NAMPT Inhibition Code” value is “A (A = <33% inhibition)”.

For the compound `CC(=O)N(C)c1ccc(-c2ccc(C(=O)NCc3cccnc3C)cn2)cc1C#N` [Compound I-456, 6-[4-[acetyl(methyl)amino]-3-cyano-phenyl]-N-[(2-methyl-3-pyridyl)methyl]pyridine-3-carboxamide], the IC50 in the test on MV-4-11 cells (setting [2]) is greater than 30000 nM. In addition, on NAMPT, the “NAMPT Inhibition Code” value is on record as “A (A = <33% inhibition)”.

Consider `COC(=O)c1cc(-c2ccc(C(=O)NCc3cccnc3C)cn2)ccc1N(C)C(C)=O` [Compound I-457, methyl 2-[acetyl(methyl)amino]-5-[5-[(2-methyl-3-pyridyl)methylcarbamoyl]-2-pyridyl]benzoate], for which, in the test on MV-4-11 cells (setting [2]), the concentration for half-maximal inhibition (IC50) amounted to 9850 nM. In addition, the “NAMPT Inhibition Code” value on NAMPT is given as “A (A = <33% inhibition)”.

For the compound `CCCN(C(C)=O)c1ccc(-c2ccc(C(=O)NCc3cccnc3C)cn2)cc1Cl` [Compound I-458, 6-[4-[acetyl(propyl)amino]-3-chloro-phenyl]-N-[(2-methyl-3-pyridyl)methyl]pyridine-3-carboxamide], in the test with MV-4-11 cells (setting [2]), the IC50 was found to be 1710 nM. Besides, the “NAMPT Inhibition Code” value on NAMPT is given as “A (A = <33% inhibition)”.

For `CC(=O)N(CC(C)C)c1ccc(-c2ccc(C(=O)NCc3cccnc3C)cn2)cc1Cl` [Compound I-459, 6-[4-[acetyl(isobutyl)amino]-3-chloro-phenyl]-N-[(2-methyl-3-pyridyl)methyl]pyridine-3-carboxamide], the IC50 with MV-4-11 cells (setting [2]) came out at 1510 nM. Also, on NAMPT, the “NAMPT Inhibition Code” value is reported as “A (A = <33% inhibition)”.

With `CCC(=O)N(C)c1ccc(-c2ccc(C(=O)NCc3cccnc3C)cc2)cc1Cl` [Compound I-460, 4-[3-chloro-4-[methyl(propanoyl)amino]phenyl]-N-[(2-methyl-3-pyridyl)methyl]benzamide], in the test with MV-4-11 cells (setting [2]), the IC50 was greater than 694 nM. Moreover, the “NAMPT Inhibition Code” value at NAMPT is given as “A (A = <33% inhibition)”.

For the compound `COC(=O)NCCN(C(C)=O)c1ccc(-c2ccc(C(=O)NCc3cccnc3)cn2)cc1` [Compound I-466, Methyl N-[2-[N-acetyl-4-[5-(3-pyridylmethylcarbamoyl)-2-pyridyl]anilino]ethyl]carbamate], in the test with MV-4-11 cells (setting [2]), the 50% inhibitory concentration (IC50) stood at 871 nM. Moreover, the “NAMPT Inhibition Code” value at NAMPT is “A (A = <33% inhibition)”.

On to `CC(=O)N(CC(C)C)c1ccc(-c2ccc(C(=O)NCc3cccnc3C)cn2)cc1` [Compound I-467, 6-[4-[Acetyl(isobutyl)amino]phenyl]-N-[(2-methyl-3-pyridyl)methyl]pyridine-3-carboxamide], for which the 50% inhibitory concentration (IC50) in the test on MV-4-11 cells (setting [2]) worked out at 4340 nM. For the same compound, on NAMPT, the “NAMPT Inhibition Code” value is on record as “A (A = <33% inhibition)”.

Take `CC(C)CN(C(=O)C(F)F)c1ccc(-c2ccc(C(=O)NCc3cccnc3)cn2)cc1` [Compound I-468, 6-[4-[(2,2-Difluoroacetyl)-isobutyl-amino]phenyl]-N-(3-pyridylmethyl)pyridine-3-carboxamide]: the IC50 in the test with MV-4-11 cells (setting [2]) worked out at 33.3 nM. Besides, the “NAMPT Inhibition Code” value on NAMPT is recorded as “B (B = ≥33 to <66% inhibition)”.

For `CCC(=O)N(C)c1ccc(-c2ccc(C(=O)NCc3ccc(C)nc3C)cc2)cc1Cl` [Compound I-481, 4-[3-chloro-4-[methyl(propanoyl)amino]phenyl]-N-[(2,6-dimethyl-3-pyridyl)methyl]benzamide], the IC50 in the test with MV-4-11 cells (setting [2]) worked out at 104 nM. In addition, on NAMPT, the “NAMPT Inhibition Code” value is on record as “A (A = <33% inhibition)”.

As to `CC(=O)N(CCC(F)(F)F)c1ccc(-c2ccc(C(=O)NCc3cccnc3)cn2)cc1` [Compound I-482, 6-[4-[Acetyl(3,3,3-trifluoropropyl)amino]phenyl]-N-(3-pyridylmethyl)pyridine-3-carboxamide], the IC50 in the test with MV-4-11 cells (setting [2]) amounted to 226 nM. Further, the “NAMPT Inhibition Code” value on NAMPT is listed as “B (B = ≥33 to <66% inhibition)”.
